Measurements from article PMC12040169 (PLOS Biology, 2025).

Experiment: in vitro
Conditions: human, hela cells, % viability

SMILES	viability at 28.5 h, 10 µM [%]
O=C(NC1CCS(=O)(=O)C1)c1cnc2c(OC(F)(F)F)cccc2c1O (stereo not drawn) [CBK304323]	99.7
Cc1cc(NC(=O)CCn2cc(Br)cn2)no1 [CBK304326]	102
CCCOc1ccc(C(=O)N2CCN(c3ccccc3)CC2)cc1 [CBK304327]	90.7
CCOC(=O)c1cnc2ccccc2c1NCCN1CCOCC1 [CBK304328]	101
Cc1cc(NC(=O)C2CCN(C(=O)CCSc3ccccc3)CC2)no1 [CBK304329]	99
CC(C)(C)OC(=O)N1CCC(c2nc(-c3cccnc3)no2)CC1 [CBK304332]	84.6
Cc1csc(CN(C)C(=O)c2cc3sccc3[nH]2)n1 [CBK304334]	92.7
Cc1nn(C)cc1CNC(=O)c1cc2ncc(Br)cn2n1 [CBK304336]	102
CCCC(=O)Nc1ccc(C(=O)N2CCN(C)CC2)cc1 [CBK304337]	100
Cc1cc(CN(C)C(=O)c2cc3sccc3[nH]2)no1 [CBK304340]	82.7
O=C(NC1CCN(c2nc3cccnc3s2)CC1)c1ccsc1 [CBK304342]	93
CCCC(=O)N1CCC(C(=O)Nc2ccccc2F)CC1 [CBK304346]	108
CC1(C)CC(NC(=O)Cn2ccc3ccccc32)CCO1 (stereo not drawn) [CBK304347]	98
CC(C)c1nc(C(=O)NCC2CCCN(c3ncccn3)C2)cs1 (stereo not drawn) [CBK304351]	100
COCCN(CC1CC1)C(=O)c1cc(NC(C)=O)ccc1Cl [CBK304352]	109
O=C(CCCOc1ccccc1)N1CCN(c2cccc(Cl)c2)CC1 [CBK304354]	107
Cc1nn(C)c(C)c1CCC(=O)NCC1CCN(c2ccccc2F)C1 (stereo not drawn) [CBK304357]	96.7
Cc1cc(NC(=O)C2CCN(C(=O)c3c(F)cccc3F)CC2)no1 [CBK304359]	95.9
CN(Cc1cccc(C(F)(F)F)c1)C(=O)c1cn(CC2CCCO2)nn1 (stereo not drawn) [CBK304360]	99.8
COc1ccc2cc(C(=O)N3CCn4cncc4C3)n(C)c2c1 [CBK304362]	98.6
Cn1nccc1CCNC(=O)c1cccc(S(=O)(=O)N2CCCCC2)c1 [CBK304363]	97
CCS(=O)(=O)N1CCC(C(=O)NC2CC(C)(C)Oc3ccccc32)CC1 (stereo not drawn) [CBK304364]	90.1
CC1(C)CC(NC(=O)C2CCCN(S(C)(=O)=O)C2)c2ccccc2O1 (stereo not drawn) [CBK304365]	98.2
CC(C)NC(=O)CN1CCN(Cc2nc(-c3cccc(Cl)c3)no2)CC1 [CBK304369]	100

SMILES	viability at 28.5 h, 10 µM [%]
O=C(CN1CCCCC1CN1CCOCC1)NCc1ccccn1 (stereo not drawn) [CBK304375]	115
CCOC(=O)c1cnc2ccc(F)cc2c1N1CCN(C)CC1 [CBK304376]	90.1
Cc1nc(CCNC(=O)C2CCN(C(=O)c3ccc(F)cc3)CC2)cs1 [CBK304378]	105
Cn1nc(C2CC2)cc1NC(=O)NCC1CCN(c2ccccc2F)C1 (stereo not drawn) [CBK304380]	85.2
O=C(Nc1ccc2nc3n(c(=O)c2c1)CCCC3)C1CCCCC1 [CBK304383]	91.9
COC(=O)c1cc(S(=O)(=O)N2c3ccccc3CC2C)cn1C (stereo not drawn) [CBK304384]	81.4
CCOC(=O)Cc1nnc(-c2cccc(C(F)(F)F)c2)[nH]1 [CBK304385]	81.1
COC(=O)c1ccc(NC(=O)N(Cc2cnn(C)c2)CC(C)C)cc1Cl [CBK304387]	93.1
CC(=O)Nc1ccc(F)c(NC(=O)NCC2CCOC2)c1 (stereo not drawn) [CBK304388]	107
CSc1cccc(C(=O)Nc2sc3c(c2C#N)CCN(C(C)=O)C3)c1 [CBK304390]	56
CCCN(CCC)C(=O)c1ccc(NC(=O)CC)cc1 [CBK304391]	91.8
O=C1CCC(N2CCN(c3ncnc4ccccc34)CC2)CCN1 (stereo not drawn) [CBK304393]	96.8
COc1ccc(CN2CCN(C(=O)c3cccc(F)c3)CC2)cc1 [CBK304396]	97
Cc1cc(C)n(CCCC(=O)N2CCC3(CCCO3)CC2)n1 [CBK304397]	102
COCCN1CC(CNC(=O)Nc2cc(NC(C)=O)ccc2F)CC1=O (stereo not drawn) [CBK304398]	82.4
Cc1cccc(C(=O)N2CCN(Cc3nc4ccccc4[nH]3)CC2)c1 [CBK304399]	90.2
CCn1ncnc1CN1CCN(C2Cc3ccccc3C2)CC1 [CBK304401]	101
COc1ccc(S(=O)(=O)NC(CCSC)c2nnc3ccccn23)cc1 (stereo not drawn) [CBK304402]	109
CC1(C)CC(NC(=O)C2CCN(S(C)(=O)=O)CC2)c2ccccc2O1 (stereo not drawn) [CBK304404]	103
Cc1cc(C)c(NC(=O)N(CCCO)Cc2ccncc2)c(Cl)c1 [CBK304406]	87.3
Cc1nc(-c2ccc(Cl)cc2)sc1C(=O)N1CCCC(C(=O)O)C1 (stereo not drawn) [CBK304407]	91.9
CCc1cc(C(=O)NC(Cn2ccnc2)C(C)(C)C)cc(=O)[nH]1 (stereo not drawn) [CBK304410]	101
OCC(CNc1ncnc2nc[nH]c12)Cc1ccccn1 (stereo not drawn) [CBK304412]	83.4
O=C(c1c[nH]c(=O)c(Cl)c1)N1CCCCC1CN1CCOCC1 (stereo not drawn) [CBK304416]	119

SMILES	viability at 28.5 h, 10 µM [%]
CC(=O)c1ccc(C(=O)Nc2sc3c(c2C#N)CCN(C(C)=O)C3)cc1 [CBK304418]	84.8
Cc1nc(CC(=O)NC2CCCN(c3ccn(C)n3)C2=O)c(C)s1 (stereo not drawn) [CBK304422]	82.8
Cc1nc(-c2ccc(NCCc3nc(C4CC4)cs3)nc2)[nH]c(=O)c1C [CBK304424]	108
Cc1csc(C(C)NC(=O)NC2CCCN(c3ccn(C)n3)C2=O)n1 (stereo not drawn) [CBK304426]	107
Cc1ccc(C#N)cc1S(=O)(=O)NC(=O)COCC1CC1 [CBK304427]	113
CCOc1cc(NC2CCN(C(=O)C3(CCOC)CC3)CC2)ncn1 [CBK304434]	98.2
COc1ccc(CCNC(=O)Cn2ccc(C3CCCNC3)n2)cc1 (stereo not drawn) [CBK304444]	76.3
COCc1nc2n(n1)CC(NC1CCCCc3ccccc31)CC2 (stereo not drawn) [CBK304445]	89.4
Cc1cccc(N2CCOC3(CCCC3)C2)n1 [CBK304446]	82.1
Cc1noc(C)c1CN1CCC(c2ccccc2)C1 (stereo not drawn) [CBK304451]	109
CC1CN(CCCCNCc2cn(C)nc2-c2cccnc2)CC(C)O1 (stereo not drawn) [CBK304453]	92.6
CC(c1ccc(F)c(F)c1)N(C)C(=O)CN1CCCc2occc2C1 (stereo not drawn) [CBK304456]	82.9
Cc1cc(C)cc(C(O)CNC2CCN(Cc3cscn3)CC2)c1 (stereo not drawn) [CBK304457]	94.4
Cc1nc(-c2cc3c(s2)CCN(CC(O)COCc2ccco2)C3)cs1 (stereo not drawn) [CBK304460]	89.4
Cc1nc(C2CN(c3ccnc4c(F)cccc34)CCO2)no1 (stereo not drawn) [CBK304464]	80.7
COC(=O)CCN(Cc1nnc(C2CC2)o1)C(C)C [CBK304470]	84.6
Cc1c(C(=O)N2CCNCC2C)nnn1-c1ccc2ncccc2c1 (stereo not drawn) [CBK304473]	94.6
Cc1csc2c(N3CCCC3CC(O)c3cnn(C)c3)ncnc12 (stereo not drawn) [CBK304477]	91.9
COC(C)CN(C)C(=O)c1nnn(-c2ccc3ncccc3c2)c1C (stereo not drawn) [CBK304484]	85.8
CCCn1c(C)nnc1CN(CC1CCCO1)C1CCC(C)CC1 (stereo not drawn) [CBK304485]	92
COc1cccc(C2(C(=O)N3CCc4nc[nH]c(=O)c4C3)CC2)c1 [CBK304488]	83.3
O=C(C1CCCN1)N1CC2(CCCC2)c2c(F)cccc21 (stereo not drawn) [CBK304489]	90.1
CN1CCCC1CNCc1cn(-c2ccccc2)nc1-c1cccnc1 (stereo not drawn) [CBK304490]	118
O=C(O)C1CCCN(C(=O)Cc2csc(COc3ccc(Cl)cc3)n2)C1 (stereo not drawn) [CBK304501]	88.1

SMILES	viability at 28.5 h, 10 µM [%]
Cc1ccc(CCC(=O)N(CC(=O)O)C2CCOCC2)c(C)c1 [CBK304509]	91.6
CN(C)C(CNCc1cn(C)nc1-c1cccnc1)c1ccccc1 (stereo not drawn) [CBK304511]	84.8
CCOCC1CCN(C(=O)c2ncsc2Nc2cccnc2)C1 (stereo not drawn) [CBK304514]	110
CN(C)C(=O)c1cccc(NC(=O)C2CCCCC2)c1 [CBK304515]	89.7
CCOC(=O)C1CSCCN1C(=O)c1ccc(-n2nc(C)cc2C)cc1 (stereo not drawn) [CBK304517]	86.4
CN(CC1CCCCC1)C(=O)c1cc2ccsc2[nH]1 [CBK304518]	91.4
O=C(Cc1noc2ccccc12)Nc1ccc(N2CCCS2(=O)=O)cc1 [CBK304521]	107
CCOC(=O)N1CCN(C(=O)c2c(C)nn(C)c2Cl)CC1 [CBK304522]	92.6
CC(=O)Nc1ccc(CNC(=O)c2cc(C)n(CC(F)(F)F)c2C)cc1 [CBK304523]	79.2
Cc1cc(NCC2CCCO2)n2ncc(-c3ccccc3)c2n1 (stereo not drawn) [CBK304530]	83.8
Cc1cc(NCC2CCCO2)n2nc(C)c(-c3ccccc3)c2n1 (stereo not drawn) [CBK304531]	90.5
O=C(Cn1nnc2ccccc2c1=O)NCC(F)(F)F [CBK304533]	94.1
CCN1CCc2nc(NC(=O)Cc3cn4ccsc4n3)sc2C1 [CBK304534]	90
COC(=O)c1ccc2c(=O)n(CC3CCCO3)c(SC)nc2c1 (stereo not drawn) [CBK304535]	108
Cc1nn(CCC#N)c(C)c1CCC(=O)NCc1cn2ccccc2n1 [CBK304540]	88.1
CC(=O)Nc1ccc(OCC(O)Cn2cnc3ncccc3c2=O)cc1 (stereo not drawn) [CBK304541]	86.4
CC(=O)Nc1ccc(OCC(O)Cn2cnc3cc(C)c(C)cc32)cc1 (stereo not drawn) [CBK304545]	93.3
N#Cc1ccc(NC(=O)NCC2(N3CCOCC3)CCSC2)cc1 (stereo not drawn) [CBK304546]	89.5
Cc1nn(C)c(C)c1CC(=O)Nc1cccc(CN2CCCCC2)c1 [CBK304547]	87.4
CC(NC(=O)C1CC(=O)N(Cc2ccccn2)C1)c1ccc(F)cc1 (stereo not drawn) [CBK304552]	97.1
CN(Cc1ccc(Br)cc1)C(=O)CNS(=O)(=O)c1cnn(C)c1 [CBK304553]	82.5
